Read-outs that look alike come from different tables or passages of the source.
Experiments:
[1] = system: phenyl-p-quinone-induced writhing (abdominal contractions); assay: phenylquinone-induced writhing test, oral administration 1-24 h before phenyl-quinone (duration of analgesia); type: in vivo, male Wistar rats
Protocol: Male Wistar rats weighing 110±5 g were caged for 10 days at 22±1° C. and given a balanced diet with free access to water. Twenty-four hours before the experiment the animals were randomized into groups of 10 and fasted for 14 hours but with free access to water. Each dose was tested in 3 groups of rats. […] alone (0.5% carboxymethyl-cellulose in physiological saline) in the control animals, each rat was given 2 ml of a 5% absolute ethanol aqueous solution containing 0.36% of phenyl-p-quinone (Sigma Chemical Company) in order to provoke writhings. Fifteen minutes after administration of phenyl-p-quinone the number of contractions were counted for 20 minutes. The inhibiting effect of the compounds under examination on the abdominal contractions induced by phenyl-p-quinone was calculated by the following formula: % protection= [formula]

[2] = system: brewers' yeast-induced hyperthermia; assay: antipyretic activity, brewers' yeast-induced hyperthermia; type: in vivo, albino male Wistar rats
Protocol: The animals were caged under the same conditions as those described in the preceding tests. Five hours following […], determined by a rectal probe connected to a YSI thermometer (73 ATP model, Yellow Springs Instrument Company) were selected for the experiment. The animals were then randomized into groups of 10 and the compounds under examination and the vehicle were administered via the oral and parenteral routes testing each dose in two groups. Body temperature was determined at one, two and three hours after administration of the substances. […]

gastric lesions = type: in vivo, male Wistar rats; details: 4 consecutive days; for gastric damage index: I=mean no. of lesions+mean of severity+% incidence/10; for mean severity: scale 0 (no lesion) to 5 (perforations)
Protocol: Male Wistar rats weighing 180 g were randomized into groups of 10. Three doses of each compound were administered. One group received the vehicle alone (10 ml/kg b.w.). Each dose was given orally for four days consecutively and the rats were sacrificed on the fifth day for necropsy. The ulcerogenic effect was evaluated by the following scale:
(1) each haemorrhagic point at least 1 mm in diameter was scored as 1 lesion,
(2) haemorrhagic points less than 1 mm in diameter were scored in the following manner:
(c) 20 to 29=three lesions
By means of this scale it was possible to obtain the gastric damage index:
I=mean no. of lesions+mean of severity+% incidence/10

Cc1ccc(C(=O)c2ccc(CC(=O)O)n2C)cc1 [Tolmetin Na.2H2 O, 1-methyl-5-p-toluoylpyrrole-2-acetic acid, reference compound]
% Protection ([1]; 10 mg/Kg oral, 1 h before phenyl-quinone): 51.8%
% Protection ([1]; 10 mg/Kg oral, 2 h before phenyl-quinone): 35.5%
% Protection ([1]; 10 mg/Kg oral, 4 h before phenyl-quinone): 32.0%
% Protection ([1]; 10 mg/Kg oral, 6 h before phenyl-quinone): 17.2%
% Protection ([1]; 10 mg/Kg oral, 8 h before phenyl-quinone): 20.2%
% Protection ([1]; 10 mg/Kg oral, 16 h before phenyl-quinone): 3.0%
% Protection ([1]; 10 mg/Kg oral, 24 h before phenyl-quinone): 5.0%
% Protection ([1]; 20 mg/Kg oral, 1 h before phenyl-quinone): 79.6%
% Protection ([1]; 20 mg/Kg oral, 2 h before phenyl-quinone): 78.0%
% Protection ([1]; 20 mg/Kg oral, 4 h before phenyl-quinone): 50.0%
% Protection ([1]; 20 mg/Kg oral, 6 h before phenyl-quinone): 45.3%
% Protection ([1]; 20 mg/Kg oral, 8 h before phenyl-quinone): 40.1%
% Protection ([1]; 20 mg/Kg oral, 16 h before phenyl-quinone): 8.7%
% Protection ([1]; 20 mg/Kg oral, 24 h before phenyl-quinone): 4.2%
% Protection ([1]; 50 mg/Kg oral, 1 h before phenyl-quinone): 81.0%
% Protection ([1]; 50 mg/Kg oral, 2 h before phenyl-quinone): 84.6%
% Protection ([1]; 50 mg/Kg oral, 4 h before phenyl-quinone): 62.5%
% Protection ([1]; 50 mg/Kg oral, 6 h before phenyl-quinone): 49.7%
% Protection ([1]; 50 mg/Kg oral, 8 h before phenyl-quinone): 45.0%
% Protection ([1]; 50 mg/Kg oral, 16 h before phenyl-quinone): 9.3%
% Protection ([1]; 50 mg/Kg oral, 24 h before phenyl-quinone): 3.8%

Cc1ccc(C(=O)c2ccc(CC(=O)N3CCN(C)CC3)n2C)cc1 [Compound 3-b, 1-methyl-5-p-toluoylpyrrole-2-N-[(4-methyl)-1-piperazinyl] acetamide]
% Temperature decrease ([2]; 50 mg/Kg i.p., 1 h): 12.9%
% Temperature decrease ([2]; 50 mg/Kg i.p., 2 h): 23.0%
% Temperature decrease ([2]; 50 mg/Kg i.p., 3 h): 38.3%
% Temperature decrease ([2]; 50 mg/Kg per os, 1 h): 13.1%
% Temperature decrease ([2]; 50 mg/Kg per os, 2 h): 21.0%
% Temperature decrease ([2]; 50 mg/Kg per os, 3 h): 36.2%
% Temperature decrease ([2]; 75 mg/Kg i.p., 1 h): 23.4%
% Temperature decrease ([2]; 75 mg/Kg i.p., 2 h): 29.0%
% Temperature decrease ([2]; 75 mg/Kg i.p., 3 h): 48.5%
% Temperature decrease ([2]; 75 mg/Kg per os, 1 h): 19.0%
% Temperature decrease ([2]; 75 mg/Kg per os, 2 h): 29.1%
% Temperature decrease ([2]; 75 mg/Kg per os, 3 h): 40.6%
% Temperature decrease ([2]; 100 mg/Kg i.p., 1 h): 32.9%
% Temperature decrease ([2]; 100 mg/Kg i.p., 2 h): 39.0%
% Temperature decrease ([2]; 100 mg/Kg i.p., 3 h): 60.1%
% Temperature decrease ([2]; 100 mg/Kg per os, 1 h): 27.0%
% Temperature decrease ([2]; 100 mg/Kg per os, 2 h): 35.0%
% Temperature decrease ([2]; 100 mg/Kg per os, 3 h): 59.7%
% incidence/10 (head is drawing 38) (gastric lesions; 50 mg/Kg orally): 7
mean no. of lesions (gastric lesions; 50 mg/Kg orally): 1
gastric damage index (gastric lesions; 50 mg/Kg orally): 9
mean severity (gastric lesions; 50 mg/Kg orally): 1
% incidence/10 (head is drawing 38) (gastric lesions; 100 mg/Kg orally): 7
mean no. of lesions (gastric lesions; 100 mg/Kg orally): 1
% incidence/10 (head is drawing 38) (gastric lesions; 200 mg/Kg orally): 8
mean no. of lesions (gastric lesions; 200 mg/Kg orally): 2

CCOC(=O)c1ccc(NC(=O)Cc2ccc(C(=O)c3ccc(C)cc3)n2C)cc1 [Compound 1-h, 1-methyl-5-p-toluoylpyrrole-2-N-(4-carboxyethyl-phenyl) acetamide]
% Temperature decrease ([2]; 50 mg/Kg i.p., 1 h): 12.0%
% Temperature decrease ([2]; 50 mg/Kg i.p., 2 h): 29.1%
% Temperature decrease ([2]; 50 mg/Kg i.p., 3 h): 36.2%
% Temperature decrease ([2]; 50 mg/Kg per os, 1 h): 13.0%
% Temperature decrease ([2]; 50 mg/Kg per os, 2 h): 28.0%
% Temperature decrease ([2]; 50 mg/Kg per os, 3 h): 31.1%
% Temperature decrease ([2]; 75 mg/Kg i.p., 1 h): 18.0%
% Temperature decrease ([2]; 75 mg/Kg i.p., 2 h): 27.2%
% Temperature decrease ([2]; 75 mg/Kg i.p., 3 h): 39.4%
% Temperature decrease ([2]; 75 mg/Kg per os, 1 h): 17.0%
% Temperature decrease ([2]; 75 mg/Kg per os, 2 h): 29.1%
% Temperature decrease ([2]; 75 mg/Kg per os, 3 h): 39.4%
% Temperature decrease ([2]; 100 mg/Kg i.p., 1 h): 23.1%
% Temperature decrease ([2]; 100 mg/Kg i.p., 2 h): 39.3%
% Temperature decrease ([2]; 100 mg/Kg i.p., 3 h): 60.2%
% Temperature decrease ([2]; 100 mg/Kg per os, 1 h): 21.0%
% Temperature decrease ([2]; 100 mg/Kg per os, 2 h): 35.1%
% Temperature decrease ([2]; 100 mg/Kg per os, 3 h): 51.8%
% incidence/10 (head is drawing 38) (gastric lesions; 50 mg/Kg orally): 7
mean no. of lesions (gastric lesions; 50 mg/Kg orally): 1
gastric damage index (gastric lesions; 50 mg/Kg orally): 9
mean severity (gastric lesions; 50 mg/Kg orally): 1
% incidence/10 (head is drawing 38) (gastric lesions; 100 mg/Kg orally): 8
mean no. of lesions (gastric lesions; 100 mg/Kg orally): 1.5
gastric damage index (gastric lesions; 100 mg/Kg orally): 10.5
mean severity (gastric lesions; 100 mg/Kg orally): 1
% incidence/10 (head is drawing 38) (gastric lesions; 200 mg/Kg orally): 8
mean no. of lesions (gastric lesions; 200 mg/Kg orally): 2
gastric damage index (gastric lesions; 200 mg/Kg orally): 11.5
mean severity (gastric lesions; 200 mg/Kg orally): 1.5

Cc1ccc(C(=O)c2ccc(CC(=O)N3CCOCC3)n2C)cc1 [Compound 3-a, 1-methyl-5-p-toluoylpyrrole-2-N-(4-morpholinyl) acetamide]
% Temperature decrease ([2]; 50 mg/Kg i.p., 1 h): 16.0%
% Temperature decrease ([2]; 50 mg/Kg i.p., 2 h): 26.0%
% Temperature decrease ([2]; 50 mg/Kg i.p., 3 h): 36.7%
% Temperature decrease ([2]; 50 mg/Kg per os, 1 h): 15.5%
% Temperature decrease ([2]; 50 mg/Kg per os, 2 h): 23.0%
% Temperature decrease ([2]; 50 mg/Kg per os, 3 h): 32.1%
% Temperature decrease ([2]; 75 mg/Kg i.p., 1 h): 19.0%
% Temperature decrease ([2]; 75 mg/Kg i.p., 2 h): 30.2%
% Temperature decrease ([2]; 75 mg/Kg i.p., 3 h): 39.4%
% Temperature decrease ([2]; 75 mg/Kg per os, 1 h): 16.2%
% Temperature decrease ([2]; 75 mg/Kg per os, 2 h): 29.1%
% Temperature decrease ([2]; 75 mg/Kg per os, 3 h): 39.4%
% Temperature decrease ([2]; 100 mg/Kg i.p., 1 h): 21.3%
% Temperature decrease ([2]; 100 mg/Kg i.p., 2 h): 36.1%
% Temperature decrease ([2]; 100 mg/Kg i.p., 3 h): 58.1%
% Temperature decrease ([2]; 100 mg/Kg per os, 1 h): 22.0%
% Temperature decrease ([2]; 100 mg/Kg per os, 2 h): 29.5%
% Temperature decrease ([2]; 100 mg/Kg per os, 3 h): 56.1%
% incidence/10 (head is drawing 38) (gastric lesions; 50 mg/Kg orally): 7
mean no. of lesions (gastric lesions; 50 mg/Kg orally): 1
gastric damage index (gastric lesions; 50 mg/Kg orally): 9
mean severity (gastric lesions; 50 mg/Kg orally): 1
% incidence/10 (head is drawing 38) (gastric lesions; 100 mg/Kg orally): 8
mean no. of lesions (gastric lesions; 100 mg/Kg orally): 1.5
gastric damage index (gastric lesions; 100 mg/Kg orally): 11.5
mean severity (gastric lesions; 100 mg/Kg orally): 2
% incidence/10 (head is drawing 38) (gastric lesions; 200 mg/Kg orally): 9
mean no. of lesions (gastric lesions; 200 mg/Kg orally): 1.5
gastric damage index (gastric lesions; 200 mg/Kg orally): 12.5
mean severity (gastric lesions; 200 mg/Kg orally): 2
